Earlier results as cited in patent publication US6569898B2, “Use of (Z) -2-cyano-3-hydroxy-but-2-enoic acid-(4′-trifluoromethylphenyl)-amide for treating multiple sclerosis” (Aventis Pharmaceuticals Inc., priority 2001, dated 2003).

Tests used:
[1] = test system: immune cells and cell lines
[2] = molecular target: dihydrooate dehydrogenase (Homo sapiens, UniProt Q02127); conditions: enzyme essential for the synthesis of pyrimidines
dihydrooate dehydrogenase, sequence (Q02127 whole entry): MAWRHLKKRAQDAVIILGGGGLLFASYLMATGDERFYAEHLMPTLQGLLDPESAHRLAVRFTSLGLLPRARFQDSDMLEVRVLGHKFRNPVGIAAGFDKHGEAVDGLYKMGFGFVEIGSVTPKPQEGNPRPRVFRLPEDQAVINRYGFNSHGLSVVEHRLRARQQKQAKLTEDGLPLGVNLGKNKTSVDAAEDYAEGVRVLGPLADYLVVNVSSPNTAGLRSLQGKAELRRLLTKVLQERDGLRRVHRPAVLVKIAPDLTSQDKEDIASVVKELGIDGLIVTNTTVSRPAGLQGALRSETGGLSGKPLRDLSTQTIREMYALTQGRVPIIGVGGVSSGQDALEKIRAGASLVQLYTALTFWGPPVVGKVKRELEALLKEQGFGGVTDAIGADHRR

## C/C(O)=C(\C#N)C(=O)Nc1ccc(C(F)(F)F)cc1 [Teriflunomide, (Z)-2-cyano-3-hydroxy-but-2-enoic acid-(4′-trifluoromethylphenyl)-amide]
[1]
  antiproliferative effects on a wide variety of immune cells and cell lines: antiproliferative effects
[2]
  inhibition of the enzyme dihydrooate dehydrogenase: inhibits
